In assay [1] the test system is HT-29. As to the kind of experiment: Analysis of cell cycle by flow cytometry. The following applies: 1, 3, 10, and 30 μM for 72 h. It is filed as cell-based. The protocol:
(§1) Cells were seeded in six-well plates at a density of 5 × 10^5 cells/well in a 2 ml culture medium and treated with compounds at the indicated concentration for 72 h. After treatment, cells were collected and fixed with 75% (v/v) ice-cold ethanol at −20 °C for 20 min. The cells were then centrifuged to remove the buffer, resuspended, and stained with 0.5 ml of propidium iodide (PI) staining buffer (80 µg/ml PI, […] RNase A, and 1% Triton X-100 in PBS). The cell cycle distribution was analysed using a BD Accuri™ Flow cytometer and software (Becton Dickinson, Mountain View, CA, USA).

For assay [2], the system named is HCT-116. As to the kind of experiment: Analysis of cell cycle by flow cytometry. To be noted: HCT116; 1, 3, 10, and 30 μM for 72 h. It is filed as cell-based. The protocol:
as §1

The target in a further assay is T1, LIMK1 (Homo sapiens, UniProt P53667).
T1 construct: purchased Thermo Fisher Scientific (SelectScreen Kinase assay service)
T1 sequence (P53667 whole entry): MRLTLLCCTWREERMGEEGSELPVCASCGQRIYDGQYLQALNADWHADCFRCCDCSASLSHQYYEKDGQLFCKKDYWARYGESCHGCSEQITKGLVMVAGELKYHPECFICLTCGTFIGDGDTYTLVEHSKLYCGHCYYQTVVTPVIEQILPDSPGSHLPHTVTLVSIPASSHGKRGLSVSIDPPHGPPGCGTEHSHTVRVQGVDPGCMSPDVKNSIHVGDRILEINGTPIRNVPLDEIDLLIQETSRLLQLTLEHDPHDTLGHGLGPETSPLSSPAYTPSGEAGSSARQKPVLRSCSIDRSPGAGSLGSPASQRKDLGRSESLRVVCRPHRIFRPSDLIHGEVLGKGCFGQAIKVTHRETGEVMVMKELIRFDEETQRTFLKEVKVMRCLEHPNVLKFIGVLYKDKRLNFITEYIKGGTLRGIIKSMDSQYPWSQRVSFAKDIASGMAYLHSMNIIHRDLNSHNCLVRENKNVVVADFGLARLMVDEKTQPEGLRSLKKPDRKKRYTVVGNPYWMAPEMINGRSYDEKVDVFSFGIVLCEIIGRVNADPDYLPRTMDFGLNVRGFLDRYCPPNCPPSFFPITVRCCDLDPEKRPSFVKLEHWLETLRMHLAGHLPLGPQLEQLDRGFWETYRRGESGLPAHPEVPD
As to the kind of experiment: LanthaScreen Eu kinase binding assay (SelectScreen), LIMK1 inhibition. The procedure:
(§2) The inhibitory activities of the compounds against kinases were tested using the SelectScreen Kinase assay from Thermo Fisher Scientific in Waltham, MA, USA. The LanthaScreen Eu kinase binding assay was used to validate the LIMK1 inhibition activity of the compounds, and was performed according to the manufacturer’s protocol (https://www.thermofisher.com/tw/zt/home/industrial/pharma-biopharma/drug-discovery-development/target-and-lead-identification-and-validation/kinasebiology/kinase-activity-assays/lanthascreentm-eu-kinase-binding-assay/lanthascreen-eu-kinase-binding-assay-validation-table.html). This endpoint assay quantifies inhibitor binding through the displacement of a fluorescently labelled ATP-competitive tracer from LIMK1. A mixture of the 100× compounds, 2× LIMK1/antibody mixture (Eu-anti-His), 4× tracer 236, and kinase buffer were mixed sequentially. After incubation at room temperature for 1 h, the mixture was analysed using a fluorescence plate reader. The kinase inhibition assay results were expressed as the average of two replicates.
On the technique in general: In TR-FRET formats the signal depends on donor and acceptor labels being close together.

Assay [3] has as its system HT-29. As to the kind of experiment: MTT assay (cell viability). It is filed as cell-based. The following applies: Homo sapiens, 72 h, mean ± SD. The procedure:
(§3) Colorectal cell line, HCT-116, was purchased from the Bioresource Collection and Research Centre (BCRC, Hsinchu, Taiwan), while HT-29 was obtained from the American Type Culture Collection (ATCC, Manassas, VA, USA). Both cell lines were maintained in McCoy’s 5 A medium (with L-glutamine and 2.2 g/L NaHCO3, M4892, Sigma) supplemented with 10% foetal bovine serum (Corning Incorporated, NY, USA) and 1% penicillin–streptomycin–amphotericin B (100 unit/ml penicillin G, 0.1 mg/ml streptomycin sulphate, 0.25 μg/ml amphotericin B, Corning Incorporated, NY, USA). All cultures were maintained in a humidified incubator at 37 °C with 5% CO2.
(§4) Cells were seeded in 96-well plates at a density of 3 × 10^3 cells/well in 100 μl of culture medium and treated with compounds at the indicated concentrations (0.3, 1, 3, 10, and 30 μM) for 72 h. Following treatment, the 3-(4,5-dimethylthiazol-2-yl)-2,5-diphenyltetrazolium bromide (MTT) solution (5 mg/ml in Phosphate-buffered saline (PBS)) was added to each well to reach a final concentration of 0.5 mg/ml, and the cells were incubated at 37 °C for 1 h. The resulting formazan crystal was dissolved in 100 µl of DMSO, and the absorbance was measured at 550 nm using an ELISA reader (Molecular Device, Sunnyvale, CA, USA).
On the technique in general: Tetrazolium dyes change colour on reduction, which living cells bring about.

In assay [4] the test system is HCT-116. As to the kind of experiment: MTT assay (cell viability). It is filed as cell-based. The following applies: Homo sapiens, 72 h, mean ± SD. The procedure:
as §3, §4

The subject of assay [5] is panel of 40 kinases from various families. As to the kind of experiment: Kinase panel screening (SelectScreen), whole panel. Format: biochemical. To be noted: all 40 kinases; 1 μM. The procedure:
(§5) Kinase panel screening was carried out using the SelectScreen Kinase Assay (Thermo Fisher Scientific, Waltham, MA, USA). Three complementary assay formats were applied: the Z′-LYTE kinase assay, LanthaScreen Eu kinase binding assay, and Adapta Universal kinase assay. The kinases selected for this study and the corresponding assay formats are summarised in Supplementary Table S1.
The Z′-LYTE Kinase Assay (Thermo Fisher Scientific, Waltham, MA, USA) was used to evaluate selected kinases’ activity, according to the manufacturer’s instructions (https://www.thermofisher.com/tw/zt/home/industrial/pharma-biopharma/drug-discovery-development/target-and-lead-identification-and-validation/kinasebiology/kinase-activity-assays/z-lyte/z-lyte-reactivity-table.html). This endpoint assay quantifies kinase activity by detecting peptide substrate phosphorylation. Briefly, a 2× mixture of selected kinase and relevant substrate was prepared in kinase buffer (0.01% polyoxyethylene lauryl ether (BRIJ-35), 50 mM 4-(2-hydroxyethyl)-1-piperazineethanesulfonic acid (HEPES), pH 7.5, 1 mM ethylene glycol-bis(β-aminoethyl ether)-N,N,N′,N′-tetraacetic acid (EGTA), and 10 mM MgCl2). After 1 h incubation at room temperature, 5 μl of 1:128 diluted development reagent solution was added, followed by an additional 1 h incubation. Fluorescence was recorded using a multimode plate reader. […]

The target of a further assay is T2, BRAF (Homo sapiens, UniProt P15056).
T2 construct: purchased Thermo Fisher Scientific SelectScreen
T2 sequence (P15056 whole entry): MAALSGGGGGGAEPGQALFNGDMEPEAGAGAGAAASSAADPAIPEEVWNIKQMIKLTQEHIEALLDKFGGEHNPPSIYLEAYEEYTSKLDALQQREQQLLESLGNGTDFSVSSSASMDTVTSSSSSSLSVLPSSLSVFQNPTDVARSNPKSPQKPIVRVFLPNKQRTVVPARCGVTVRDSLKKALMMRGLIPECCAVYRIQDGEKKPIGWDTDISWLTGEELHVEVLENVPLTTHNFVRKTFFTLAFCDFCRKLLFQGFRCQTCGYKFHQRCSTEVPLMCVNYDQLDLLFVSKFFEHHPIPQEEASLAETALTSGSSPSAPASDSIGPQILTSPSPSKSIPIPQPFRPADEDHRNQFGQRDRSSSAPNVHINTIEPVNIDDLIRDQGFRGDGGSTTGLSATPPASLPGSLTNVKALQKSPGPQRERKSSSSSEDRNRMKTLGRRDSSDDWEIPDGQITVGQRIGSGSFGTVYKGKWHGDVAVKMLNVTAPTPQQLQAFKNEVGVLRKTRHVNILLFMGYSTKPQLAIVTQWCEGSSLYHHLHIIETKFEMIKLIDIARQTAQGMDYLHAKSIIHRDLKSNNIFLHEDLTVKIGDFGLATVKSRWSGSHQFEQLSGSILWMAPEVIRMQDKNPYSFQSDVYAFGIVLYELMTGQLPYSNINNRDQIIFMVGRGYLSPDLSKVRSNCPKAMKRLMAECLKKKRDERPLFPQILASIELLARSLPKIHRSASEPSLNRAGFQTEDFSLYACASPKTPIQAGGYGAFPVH
As to the kind of experiment: SelectScreen kinase panel, LanthaScreen Eu kinase binding assay. To be noted: read-out: Inhibition percentage at 1 μM. The procedure:
as §2, §5

Another assay concerns the target T3, VRK2 (Homo sapiens, UniProt Q86Y07).
T3 construct: purchased Thermo Fisher Scientific SelectScreen
The assay is described as above. The following applies: read-out: Inhibition percentage at 1 μM. The procedure: as §2, §5

For another assay, the target named is T4, EPHA3 (Homo sapiens, UniProt P29320).
T4 construct: purchased Thermo Fisher Scientific SelectScreen
T4 sequence (P29320 21-983): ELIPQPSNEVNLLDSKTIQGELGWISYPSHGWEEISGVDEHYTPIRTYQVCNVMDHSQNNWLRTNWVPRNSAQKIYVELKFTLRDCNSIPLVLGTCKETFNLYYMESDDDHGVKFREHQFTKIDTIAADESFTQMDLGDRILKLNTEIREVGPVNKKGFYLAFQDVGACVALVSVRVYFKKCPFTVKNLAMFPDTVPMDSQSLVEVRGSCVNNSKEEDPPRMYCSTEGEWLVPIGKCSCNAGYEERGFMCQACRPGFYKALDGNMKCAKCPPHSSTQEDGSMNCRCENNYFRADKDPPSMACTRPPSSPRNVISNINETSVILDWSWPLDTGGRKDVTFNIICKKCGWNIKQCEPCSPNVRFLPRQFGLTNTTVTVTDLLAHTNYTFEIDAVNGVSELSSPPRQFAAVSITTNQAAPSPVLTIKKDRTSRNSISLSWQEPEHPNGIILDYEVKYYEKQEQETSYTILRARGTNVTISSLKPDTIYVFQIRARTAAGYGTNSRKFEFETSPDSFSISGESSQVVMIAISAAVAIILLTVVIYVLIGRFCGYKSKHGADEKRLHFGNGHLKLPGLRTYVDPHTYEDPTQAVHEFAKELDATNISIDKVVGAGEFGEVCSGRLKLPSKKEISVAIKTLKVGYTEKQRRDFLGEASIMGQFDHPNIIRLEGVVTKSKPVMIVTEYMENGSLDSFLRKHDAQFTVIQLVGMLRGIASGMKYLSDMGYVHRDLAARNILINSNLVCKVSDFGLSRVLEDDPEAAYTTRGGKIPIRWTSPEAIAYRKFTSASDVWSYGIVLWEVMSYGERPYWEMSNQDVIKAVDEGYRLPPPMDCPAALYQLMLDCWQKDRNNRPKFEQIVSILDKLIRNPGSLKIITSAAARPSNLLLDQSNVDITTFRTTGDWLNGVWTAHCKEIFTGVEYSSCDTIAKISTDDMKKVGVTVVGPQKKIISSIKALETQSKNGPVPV
The description is as above. The following applies: read-out: Inhibition percentage at 1 μM. The protocol: as §2, §5

The target of another assay is T5, TGFBR1 (ALK5) (Homo sapiens, UniProt P36897).
T5 construct: purchased Thermo Fisher Scientific SelectScreen
T5 sequence (P36897 34-503): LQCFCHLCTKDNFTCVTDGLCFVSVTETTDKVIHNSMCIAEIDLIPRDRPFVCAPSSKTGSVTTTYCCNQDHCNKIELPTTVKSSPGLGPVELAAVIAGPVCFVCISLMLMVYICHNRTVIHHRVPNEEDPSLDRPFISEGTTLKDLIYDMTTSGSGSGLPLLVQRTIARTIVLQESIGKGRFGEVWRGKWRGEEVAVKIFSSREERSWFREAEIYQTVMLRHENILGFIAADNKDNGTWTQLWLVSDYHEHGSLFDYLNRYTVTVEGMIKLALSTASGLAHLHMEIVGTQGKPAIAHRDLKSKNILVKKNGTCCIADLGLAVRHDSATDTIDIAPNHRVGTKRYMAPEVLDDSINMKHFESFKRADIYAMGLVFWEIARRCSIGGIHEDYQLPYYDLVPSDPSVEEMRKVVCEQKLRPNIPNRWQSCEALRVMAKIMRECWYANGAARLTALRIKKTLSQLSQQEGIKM
The description is as above. The following applies: read-out: Inhibition percentage at 1 μM. The procedure: as §2, §5

A further assay deals with T6, MAP2K1 (MEK1) (Homo sapiens, UniProt Q02750).
T6 construct: purchased Thermo Fisher Scientific SelectScreen
T6 sequence (Q02750 whole entry): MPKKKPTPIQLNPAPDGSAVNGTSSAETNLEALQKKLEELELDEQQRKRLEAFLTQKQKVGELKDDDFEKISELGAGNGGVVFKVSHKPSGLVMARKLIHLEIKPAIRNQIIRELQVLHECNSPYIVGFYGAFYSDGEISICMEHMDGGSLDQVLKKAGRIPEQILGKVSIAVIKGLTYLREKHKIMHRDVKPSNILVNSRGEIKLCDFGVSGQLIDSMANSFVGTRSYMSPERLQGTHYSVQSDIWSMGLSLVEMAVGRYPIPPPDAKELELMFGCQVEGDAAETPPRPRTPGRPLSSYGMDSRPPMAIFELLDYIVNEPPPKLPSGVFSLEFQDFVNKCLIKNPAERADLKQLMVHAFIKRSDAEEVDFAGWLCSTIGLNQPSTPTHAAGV
The assay is described as above. To be noted: read-out: Inhibition percentage at 1 μM. The protocol: as §2, §5

The target of the next assay is T7, ICK (Homo sapiens, UniProt Q9UPZ9).
T7 construct: purchased Thermo Fisher Scientific SelectScreen
T7 sequence (Q9UPZ9 whole entry): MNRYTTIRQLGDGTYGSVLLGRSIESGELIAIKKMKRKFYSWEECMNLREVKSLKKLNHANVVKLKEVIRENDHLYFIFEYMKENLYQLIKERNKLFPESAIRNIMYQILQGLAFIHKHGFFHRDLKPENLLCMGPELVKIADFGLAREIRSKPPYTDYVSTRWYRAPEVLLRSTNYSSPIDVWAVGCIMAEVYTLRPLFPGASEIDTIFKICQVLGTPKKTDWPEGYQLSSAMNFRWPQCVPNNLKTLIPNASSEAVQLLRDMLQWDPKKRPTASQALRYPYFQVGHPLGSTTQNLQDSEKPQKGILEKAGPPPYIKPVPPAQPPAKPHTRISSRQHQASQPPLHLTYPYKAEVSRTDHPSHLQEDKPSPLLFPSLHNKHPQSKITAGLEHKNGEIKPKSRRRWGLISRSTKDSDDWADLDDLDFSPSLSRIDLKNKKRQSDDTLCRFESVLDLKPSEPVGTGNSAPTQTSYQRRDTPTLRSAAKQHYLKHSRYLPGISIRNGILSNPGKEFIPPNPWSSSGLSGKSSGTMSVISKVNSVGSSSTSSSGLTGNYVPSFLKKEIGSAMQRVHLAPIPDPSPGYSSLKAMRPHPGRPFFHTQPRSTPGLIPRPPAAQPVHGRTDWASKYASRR
The assay is described as above. The following applies: read-out: Inhibition percentage at 1 μM. The protocol: as §2, §5

A further assay concerns the target T8, WEE1 (Homo sapiens, UniProt P30291).
T8 construct: purchased Thermo Fisher Scientific SelectScreen
The assay is described as above. The following applies: read-out: Inhibition percentage at 1 μM. The protocol:
as §2, §5

A further assay addresses T9, LIMK2 (Homo sapiens, UniProt P53671).
T9 construct: purchased Thermo Fisher Scientific SelectScreen
The assay is described as above. To be noted: read-out: Inhibition percentage at 1 μM. The procedure:
as §2, §5

Structures are written as SMILES.

Usually IC50 stands for the concentration that gives 50% inhibition. Read a high IC50 as weaker potency. Usually inhibition stands for the relative decrease from the control value, in per cent.

T3 sequence (Q86Y07 whole entry): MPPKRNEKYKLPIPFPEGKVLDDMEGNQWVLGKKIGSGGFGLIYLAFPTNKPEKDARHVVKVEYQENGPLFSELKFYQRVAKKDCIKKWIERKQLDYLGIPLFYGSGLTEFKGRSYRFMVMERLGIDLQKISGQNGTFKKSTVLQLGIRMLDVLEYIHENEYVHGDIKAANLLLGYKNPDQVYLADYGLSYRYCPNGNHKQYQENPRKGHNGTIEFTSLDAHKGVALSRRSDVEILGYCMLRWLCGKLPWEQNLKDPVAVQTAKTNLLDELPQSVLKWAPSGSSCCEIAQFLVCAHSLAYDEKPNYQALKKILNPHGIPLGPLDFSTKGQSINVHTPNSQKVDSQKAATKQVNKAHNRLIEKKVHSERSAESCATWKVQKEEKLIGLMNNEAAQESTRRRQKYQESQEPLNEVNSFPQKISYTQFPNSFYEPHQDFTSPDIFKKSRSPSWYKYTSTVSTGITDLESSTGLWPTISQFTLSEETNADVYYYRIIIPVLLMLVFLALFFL
T9 sequence (P53671 whole entry): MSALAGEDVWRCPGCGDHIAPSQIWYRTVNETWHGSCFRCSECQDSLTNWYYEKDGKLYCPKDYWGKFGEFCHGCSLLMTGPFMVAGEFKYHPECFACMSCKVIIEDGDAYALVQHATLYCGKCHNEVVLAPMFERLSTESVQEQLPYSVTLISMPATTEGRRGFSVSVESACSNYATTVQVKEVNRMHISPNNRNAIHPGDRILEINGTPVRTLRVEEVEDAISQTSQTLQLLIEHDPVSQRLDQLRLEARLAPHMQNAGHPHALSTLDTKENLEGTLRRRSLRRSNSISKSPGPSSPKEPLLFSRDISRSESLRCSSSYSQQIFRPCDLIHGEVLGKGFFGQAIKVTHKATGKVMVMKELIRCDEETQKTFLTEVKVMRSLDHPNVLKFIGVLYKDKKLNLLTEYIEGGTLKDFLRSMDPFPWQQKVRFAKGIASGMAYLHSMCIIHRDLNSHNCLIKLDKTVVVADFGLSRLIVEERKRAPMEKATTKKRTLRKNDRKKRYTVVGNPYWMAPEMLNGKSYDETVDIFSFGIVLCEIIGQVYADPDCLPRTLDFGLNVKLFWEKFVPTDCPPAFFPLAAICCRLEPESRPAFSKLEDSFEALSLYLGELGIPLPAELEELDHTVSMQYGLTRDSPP

For the compound `O=C(/C=C/c1ccc(O)c(O)c1)CCCCn1ccc2c(O)cccc21` [Compound 13a, (E)-1-(3,4-dihydroxyphenyl)-7-(4-hydroxy-1H-indol-1-yl)hept-1-en-3-one], the “population of Sub-G1 cells” value with HT-29 [1] and in the assay with HCT-116 [2] was “increased in a dose-dependent manner” in each case. Moreover, the G0/G1 phase population entry with HCT-116 [2] was “decrease in the G0/G1 phase”. Besides, the S phase population result in the assay on HCT-116 [2] is “dose-dependent increase in the S phase”. Also, the half-inhibitory concentration (IC50) came to 0.94 µM on LIMK1, 28.8 ± 0.4 µM in the assay with HT-29 [3] and 18.2 ± 0.9 µM in the assay with HCT-116 [4]. Besides, the inhibition at 1 µM on LIMK1 (1 μM, Figure 4(B), read-out: Inhibition percentage at 1 μM) is over 50%; at BRAF, 16%; on VRK2, 3%; at EPHA3, 2%; on TGFBR1 (ALK5), 24%; at MAP2K1 (MEK1), 4%. Moreover, the inhibition at 1 µM was 32% at ICK, 44% at WEE1 and 30% at LIMK2. The inhibition at 10 µM at LIMK1 (compound at 10 μM, average of two replicates, read-out: Inhibition percentage at 10 μM) was found to be 109%. The “inhibition percentages across the panel of 40 kinases” value in assay [5] is given as “below 50%”.

Source of the values: paper PMC12624955, “Exploring diarylheptanoid derivatives to target LIMK1 as potential agents against colorectal cancer” (Journal of Enzyme Inhibition and Medicinal Chemistry, 2025).
